Test results as given in patent US11427548B2 (Arvinas Operations, Inc., priority 2015, dated 2022).
Where two headings read alike, the source gives them in different places.

Target: T1, Androgen Receptor (Homo sapiens, UniProt P10275)
T1 construct: endogenous in cells; host or cells: VCaP cells
T1 sequence (P10275 1-920): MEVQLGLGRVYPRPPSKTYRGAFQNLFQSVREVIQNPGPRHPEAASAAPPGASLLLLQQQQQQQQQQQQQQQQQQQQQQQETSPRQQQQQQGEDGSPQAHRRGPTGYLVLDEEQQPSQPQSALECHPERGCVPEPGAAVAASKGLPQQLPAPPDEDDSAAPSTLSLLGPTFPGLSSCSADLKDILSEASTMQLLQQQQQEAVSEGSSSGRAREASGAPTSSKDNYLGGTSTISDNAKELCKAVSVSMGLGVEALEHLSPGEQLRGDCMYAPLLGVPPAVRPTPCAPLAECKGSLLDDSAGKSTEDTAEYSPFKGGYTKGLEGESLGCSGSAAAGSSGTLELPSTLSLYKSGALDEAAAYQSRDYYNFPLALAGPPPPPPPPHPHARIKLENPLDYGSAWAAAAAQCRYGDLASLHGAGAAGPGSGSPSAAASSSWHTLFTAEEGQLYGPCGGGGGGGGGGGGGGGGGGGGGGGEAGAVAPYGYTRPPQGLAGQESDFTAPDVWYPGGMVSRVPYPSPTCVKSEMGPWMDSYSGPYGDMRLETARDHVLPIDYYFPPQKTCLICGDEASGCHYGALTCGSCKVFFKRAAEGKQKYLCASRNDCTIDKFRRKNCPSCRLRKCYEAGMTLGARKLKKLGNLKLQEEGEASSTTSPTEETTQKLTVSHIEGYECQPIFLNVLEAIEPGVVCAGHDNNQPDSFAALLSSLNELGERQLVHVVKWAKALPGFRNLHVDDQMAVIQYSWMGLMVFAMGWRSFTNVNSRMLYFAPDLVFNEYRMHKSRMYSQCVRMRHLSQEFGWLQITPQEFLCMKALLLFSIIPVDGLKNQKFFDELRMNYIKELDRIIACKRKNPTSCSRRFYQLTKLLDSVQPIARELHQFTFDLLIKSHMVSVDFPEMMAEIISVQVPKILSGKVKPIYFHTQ
Experiment: Androgen Receptor ELISA assay (PathScan AR ELISA) in VCaP cells: AR degradation, Dmax and DC50
Type: cell-based
Method in brief: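 VCaP cells, 30,000/well, grown ≥3 days in phenol red-free RPMI with 5% charcoal-stripped FBS; compound added in 0.1% DMSO with 0.1 nM R1881, 7 half-log doses, 24 h. Lysate AR quantified by PathScan sandwich ELISA, HRP/TMB read at 450 nm, giving DC50 and Dmax.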

[1] = VCaP cells; Table 36; read-out: VCaP DC50
[2] = VCaP, VCaP cells; Table 36; read-out: VCaP Dmax (%)
[3] = read-out: VCaP DC50; VCaP cells; Table 36

Structure (SMILES) | DC50 [1] [nM] | Dmax [2] [%] | Dmax (VCaP, read-out: VCaP Dmax (%)) [%] | DC50 [3] [nM] | Dmax (VCaP, read-out: VCaP Dmax (%), VCaP cells; Table 36) [%]
Cc1ncsc1-c1ccc([C@H](C)NC(=O)[C@@H]2C[C@@H](O)CN2C(=O)[C@@H](NC(=O)Cc2ccnc(N3CCN(c4ccc(C(=O)N[C@H]5C(C)(C)[C@H](Oc6ccc(C#N)c(Cl)c6)C5(C)C)cn4)CC3)c2)C(C)(C)C)cc1 [Example 644, N-((1r,3r)-3-(3-chloro-4-cyanophenoxy)-2,2,4,4-tetramethylcyclobutyl)-6-(4-(4-(2-(((S)-1-((2S,4R)-4-hydroxy-2-(((S)-1-(4-(4-methylthiazol-5-yl)phenyl)ethyl)carbam-oyl)pyrrolidin-1-yl)-3,3-dimethyl-1-oxobutan-2-yl)amino)-2-oxoethyl)pyridin-2-yl)piperazin-1-yl)nicotinamide] | < 50 | > 71 |  |  | 
Cc1ncsc1-c1ccc(CNC(=O)[C@@H]2C[C@@H](O)CN2C(=O)[C@@H](NC(=O)CN2CCN(CCOc3ccc(C(=O)N[C@H]4C(C)(C)[C@H](Oc5ccc(C#N)c(Cl)c5)C4(C)C)cc3)CC2)C(C)(C)C)cc1 [Example 645, (2S,4R)-1-((S)-2-(2-(4-(2-(4-(((1r,3r)-3-(3-chloro-4-cyanophenoxy)-2,2,4,4-tetramethylcyclobutyl)carbamoyl)phenoxy)eth-yl)piperazin-1-yl)acetamido)-3,3-dimethylbutanoyl)-4-hydroxy-N-(4-(4-methylthiazol-5-yl)benzyl)pyrrolidine-2-carboxamide] | < 50 | 51 to 70 |  |  | 
Cc1ncsc1-c1ccc(CNC(=O)[C@@H]2C[C@@H](O)CN2C(=O)[C@@H](NC(=O)CN2CCN(CCOc3ccc(C(=O)N[C@H]4C(C)(C)[C@H](Oc5ccc(C#N)c(C(F)(F)F)c5)C4(C)C)cc3)CC2)C(C)(C)C)cc1 [Example 646, (2S,4R)-1-((S)-2-(2-(4-(2-(4-(((1r,3r)-3-(4-cyano-3-(trifluoromethyl)phenoxy)-2,2,4,4-tetramethylcyclobutyl)carbamoyl)phenoxy)eth-yl)piperazin-1-yl)actamido)-3,3-dimethylbutanoyl)-4-hydroxy-N-(4-(4-methylthiazol-5-yl)benzyl)pyrrolidine-2-carboxamide] | < 50 | 26 to 50 |  |  | 
Cc1ncsc1-c1ccc([C@H](C)NC(=O)[C@@H]2C[C@@H](O)CN2C(=O)[C@@H](C(C)C)n2cc(OCCCOCCCn3cnc(-c4ccc(N5C(=S)N(c6ccc(C#N)c(C(F)(F)F)c6)C(=O)C5(C)C)cc4)c3)cn2)cc1 [Example 647, (2S,4R)-1-((R)-2-(4-(3-(3-(4-(4-(3-(4-cyano-3-(trifluoromethyl)phenyl)-5,5-dimethyl-4-oxo-2-thhioxoimidazolidin-1-yl)phenyl)-1H-imidazol-1-yl)propoxy)propoxy)-1H-pyrazol-1-yl)-3-methylbutanoyl)-4-hydroxy-N-((S)-1-(4-(4-methylthiazol-5-yl)phenyl)ethyl)pyrrolidine-2-carboxamide] |  |  | < 25 | > 501 | 
Cc1ncsc1-c1ccc([C@H](C)NC(=O)[C@@H]2C[C@@H](O)CN2C(=O)[C@H](C(C)C)n2cc(OCCCOCCCn3cnc(-c4ccc(N5C(=S)N(c6ccc(C#N)c(C(F)(F)F)c6)C(=O)C5(C)C)cc4)c3)cn2)cc1 [Example 648, (2S,4R)-1-((S)-2-(4-(3-(3-(4-(4-(3-(4-cyano-3-(trifluoromethyl)phenyl)-5,5-dimethyl-4-oxo-2-thioxoimidazolidin-1-yl)phenyl)-1H-imidazol-1-yl)propoxy)propoxy)-1H-pyrazol-1-yl)-3-methylbutanoyl)-4-hydroxy-N-((S)-1-(4-(4-methylthiazol-5-yl)phenyl)ethyl)pyrrolidine-2-carboxamide] |  |  | < 25 | > 501 | 
CC[C@H](NC(=O)[C@@H]1C[C@@H](O)CN1C(=O)[C@@H](NC(=O)COCCN1CCN(c2ccc(C(=O)N[C@H]3C(C)(C)[C@H](Oc4ccc(C#N)c(Cl)c4)C3(C)C)cn2)CC1)C(C)(C)C)c1ccc(-c2scnc2C)cc1 [Example 649, N-((1r,3r)-3-(3-chloro-4-cyanophenoxy)-2,2,4,4-tetramethylcyclobutyl)-6-(4-(2-(2-(((S)-1-((2S,4R)-4-hydroxy-2-(((S)-1-(4-(4-methylthiazol-5-yl)phenyl)propyl)carbam-moyl)pyrrolidin-1-yl)-3,3-dimethyl-1-oxobutan-2-yl)amino)-2-oxoethoxy)ethyl)pipera-zin-1-yl)nicotinamide] | < 50 | > 71 |  |  | 
Cc1ncsc1-c1ccc([C@H](C)NC(=O)[C@@H]2C[C@@H](O)CN2C(=O)C(C(C)C)n2cnc(CCCCOCCCCCOc3ccc(N4C(=S)N(c5ccc(C#N)c(C(F)(F)F)c5)C(=O)C4(C)C)cc3)c2)cc1 (stereo partly drawn) [Example 650, 1-(2-(4-(4-((5-(4-(3-(4-cyano-3-(trifluoromethyl)phenyl)-5,5-dimethyl-4-oxo-2-thioxoimidazolidin-1-yl)phenoxy)pentyl)oxy)butyl)-1H-imidazol-1-yl)-3-methylbutanoyl)-4-hydroxy-N-(1-(4-(4-methylthiazol-5-yl)phenyl)ethyl)pyrroli-dine-2-carboxamide] |  |  | < 25 | > 501 | 
Cc1ncsc1-c1ccc([C@H](C)NC(=O)[C@@H]2C[C@@H](OC(=O)OC(C)C)CN2C(=O)[C@@H](NC(=O)COCCCCCNc2ccc(C(=O)N[C@H]3C(C)(C)[C@H](Oc4ccc(C#N)c(Cl)c4)C3(C)C)cc2)C(C)(C)C)cc1 [Example 652, (3R,5S)-1-((S)-2-(2-((5-((4-(((1r,3r)-3-(3-chloro-4-cyanophenoxy)-2,2,4,4-tetramethylcyclobutyl)carbamoyl)phenyl)amino)pentyl)oxy)acetamido)-3,3-dimethylbutanoyl)-5-(((S)-1-(4-(4-methylthiazol-5-yl)phenyl)ethyl)carbam-oyl)pyrrolidin-3-yl isopropyl carbonate] | > 501 | < 25 |  |  | 
Cc1ncsc1-c1ccc(C(C)NC(=O)[C@@H]2C[C@@H](OCOC(=O)OC(C)C)CN2C(=O)[C@@H](NC(=O)COCCCCCNc2ccc(C(=O)N[C@H]3C(C)(C)[C@H](Oc4ccc(C#N)c(Cl)c4)C3(C)C)cc2)C(C)(C)C)cc1 (stereo partly drawn) [Example 653, (((3R,5S)-1-((S)-2-(2-((5-((4-(((1r,3r)-3-(3-chloro-4-cyanophenoxy)-2,2,4,4-tetramethylcyclobutyl)carbamoyl)phenyl)amino)pentyl)oxy)acetamido)-3,3-dimethylbutanoyl)-5-(((S)-1-(4-(4-methylthiazol-5-yl)phenyl)ethyl)carbam-oyl)pyrrolidin-3-yl)oxy)methyl isopropyl carbonate] | < 50 | 51 to 70 |  |  | 
Cc1ncsc1-c1ccc([C@H](C)NC(=O)[C@@H]2C[C@@H](O)CN2C(=O)[C@@H](NC(=O)COCCN2CCN(c3ccc(C(=O)N[C@H]4C(C)(C)[C@H](Oc5ccc(C#N)c(Cl)c5)C4(C)C)nc3)CC2)C(C)(C)C)cc1 [Example 654, N-((1r,3r)-3-(3-chloro-4-cyanophenoxy)-2,2,4,4-tetramethylcyclobutyl)-5-(4-(2-(2-(((S)-1-((2S,4R)-4-hydroxy-2-(((S)-1-(4-(4-methylthiazol-5-yl)phenyl)ethyl)carbam-oyl)pyrrolidin-1-yl)-3,3-dimethyl-1-oxobutan-2-yl)amino)-2-oxoethoxy)ethyl)pipera-zin-1-yl)picolinamide] | < 50 | > 71 |  |  | 
Cc1ncsc1-c1ccc([C@H](C)NC(=O)[C@@H]2C[C@@H](O)CN2C(=O)[C@@H](NC(=O)[C@H](CO)N2CCN(CCOc3ccc(C(=O)N[C@H]4C(C)(C)[C@H](Oc5ccc(C#N)c(Cl)c5)C4(C)C)cc3)CC2)C(C)(C)C)cc1 [Example 655, (2S,4R)-1-((S)-2-((S)-2-(4-(2-(4-(((1r,3r)-3-(3-chloro-4-cyanophenoxy)-2,2,4,4-tetramethylcyclobutyl)carbamoyl)phenoxy)eth-yl)piperazin-1-yl)-3-hydroxypropanamido)-3,3-dimethylbutanoyl)-4-hydroxy-N-((S)-1-(4-(4-methylthiazol-5-yl)phenyl)ethyl)pyrrolidine-2-carboxamide] | > 501 |  | 26 to 50 |  | 
Cc1ncsc1-c1ccc([C@H](C)NC(=O)[C@@H]2C[C@@H](O)CN2C(=O)[C@@H](NC(=O)COCCCCCNc2ccc(C(=O)N[C@H]3C(C)(C)[C@H](Oc4ccc(C#N)c(Cl)c4)C3(C)C)cc2F)C(C)(C)C)cc1 [Example 656, (2S,4R)-1-((S)-2-(2-((5-((4-(((1r,3r)-3-(3-chloro-4-cyanophenoxy)-2,2,4,4-tetramethylcyclobutyl)carbamoyl)-2-fluorophenyl)amino)pentyl)oxy)acetamido)-3,3-dimethylbutanoyl)-4-hydroxy-N-((S)-1-(4-(4-methylthiazol-5-yl)phenyl)ethyl)pyrrolidine-2-carboxamide] | < 50 |  |  |  | > 71
